Measurements published in the supplement of paper PMC6045584.
± gives the standard deviation of the averaged measurements.

Legend:
SORAFENIB = compound: CNC(=O)c1cc(Oc2ccc(NC(=O)Nc3ccc(Cl)c(C(F)(F)F)c3)cc2)ccn1 [SORAFENIB]; assay: surviving fraction relative to DMSO-only wells; higher = less growth inhibition; settings: exposure time: 5 days
How it was run: (§1)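 Five days of continuous inhibitor exposure, at 0.5, 1, 5, 10, 50, 100, 500 and 1000 nM, followed a 24-hour period after log-phase tumour cell lines were seeded at 250–500 cells per well in 384-well plates. Surviving fraction was derived from CellTiter-Glo luminescence relative to the median of DMSO-only wells. Plates were read after 10 minutes at room temperature, and lines screened three times were kept only if replicate Pearson r >0.7 and median Z' >0.3.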

[1] = compound: COc1cc2ncnc(Nc3ccc(F)c(Cl)c3)c2cc1NC(=O)/C=C/CN1CCCCC1; assay: as above; settings: exposure time: 5 days
How it was run: as §1

Test System | surviving fraction (SORAFENIB; 0.5 nM) | surviving fraction (SORAFENIB; 1 nM) | surviving fraction (SORAFENIB; 5 nM) | surviving fraction (SORAFENIB; 10 nM) | surviving fraction (SORAFENIB; 50 nM) | surviving fraction (SORAFENIB; 100 nM) | surviving fraction (SORAFENIB; 500 nM) | surviving fraction ([1]; 0.5 nM) | surviving fraction ([1]; 1 nM) | surviving fraction ([1]; 5 nM) | surviving fraction ([1]; 10 nM) | surviving fraction ([1]; 50 nM) | surviving fraction ([1]; 100 nM) | surviving fraction ([1]; 500 nM) | surviving fraction ([1]; 1000 nM) | surviving fraction (SORAFENIB; 1000 nM)
G292 BONE | 0.973 ± 0.051 | 0.967 ± 0.034 | 1.01 ± 0.02 | 1.02 ± 0.04 | 1.01 ± 0.058 | 0.96 ± 0.016 | 0.918 ± 0.025 | 1.03 ± 0.021 | 0.979 ± 0.054 | 1.05 ± 0.031 | 1.02 ± 0.03 | 0.981 ± 0.052 | 0.9292 ± 0.0084 | 0.693 ± 0.029 | 0.424 ± 0.013 | –
HCC38 BREAST | 1.19 ± 0.19 | – | 1.27 ± 0.14 | 1.18 ± 0.16 | 1.26 ± 0.29 | 1.32 ± 0.21 | 1.29 ± 0.26 | 1.02 ± 0.082 | 1.21 ± 0.21 | 1.16 ± 0.044 | 1.22 ± 0.26 | 0.954 ± 0.26 | 1.07 ± 0.046 | 0.863 ± 0.099 | 0.716 ± 0.06 | 1.22 ± 0.26
HCC70 BREAST | 1.01 ± 0.069 | 0.976 ± 0.082 | 1.1 ± 0.057 | 1.01 ± 0.032 | 1.22 ± 0.019 | 1.34 ± 0.081 | 1.33 ± 0.032 | 1.11 ± 0.059 | 1.06 ± 0.11 | 0.926 ± 0.074 | 0.957 ± 0.11 | 0.956 ± 0.11 | 0.975 ± 0.049 | 0.897 ± 0.091 | 0.842 ± 0.031 | 1.25 ± 0.16
HMLE3 BREAST | 0.899 ± 0.033 | 1 ± 0.0095 | 1.08 ± 0.084 | 1.1 ± 0.045 | 1.3 ± 0.044 | 1.41 ± 0.045 | 1.41 ± 0.021 | 0.953 ± 0.036 | 0.934 ± 0.063 | 0.917 ± 0.084 | 0.953 ± 0.065 | 0.921 ± 0.069 | 0.932 ± 0.052 | 0.793 ± 0.076 | 0.679 ± 0.035 | 1.41 ± 0.079
HMT3552 BREAST | 1.1 | 1.03 | – | – | 1.33 | 1.29 | 1.36 | 0.902 | 0.831 | 0.845 | 0.802 | 0.827 | 0.792 | 0.65 | 0.302 | 1.29
HS57T BREAST | 0.987 ± 0.058 | 1.045 ± 0.0089 | 1.05 ± 0.031 | 1.082 ± 0.0081 | 1.09 ± 0.057 | 1.15 ± 0.084 | 0.965 ± 0.059 | 0.945 ± 0.064 | 1.02 ± 0.076 | 1.07 ± 0.024 | 1.04 ± 0.038 | 1.04 ± 0.032 | 1.04 ± 0.05 | 0.86 ± 0.064 | 0.318 ± 0.026 | 0.951 ± 0.021
HS578T BREAST | 0.671 ± 0.16 | 0.862 ± 0.077 | 0.766 ± 0.015 | 0.776 ± 0.018 | 0.831 ± 0.15 | 0.794 ± 0.034 | – | 1.07 ± 0.1 | 1.15 ± 0.14 | 1.03 ± 0.12 | 0.956 ± 0.17 | 0.985 ± 0.2 | 1.09 ± 0.1 | 0.688 ± 0.19 | 0.412 ± 0.091 | –
